From US9833497B2, “Human originated EGF domain proteins and use of the same” (CHENGDU SOURCEBIO LIMITED-LIABILITY COMPANY, priority 2013, dated 2017)

What was measured:
Type in all cases: cell-based
E. coli BL21 = assay: MIC against Gram-negative bacteria: E. coli BL21; conditions: for MIC against E. coli BL21 / MIC E. coli BL21: 96-well plate, 37° C., 10 h; for MIC against E. coli BL21 / MIC E. coli BL21 / MIC (μg/mL) E. coli BL21: 5×10^5 CFU/mL
In short: (§1)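 The recombinant human-originated EGF domain proteins were serially diluted two-fold against bacteria at 5×10^5 CFU/mL in LB medium. After shaken incubation at 37° C, the lowest concentration with no bacterial growth was recorded as the MIC.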

Serratia marcescens = assay: MIC against Gram-negative bacteria: Serratia marcescens; conditions: for MIC against S. marcescens / MIC S. marcescens: 96-well plate, 37° C., 10 h; for MIC against S. marcescens / MIC S. marcescens / MIC (μg/mL) S. marcescens: 5×10^5 CFU/mL
In short: as §1

Proteus vulgaris = assay: MIC against Gram-negative bacteria: Proteus vulgaris; conditions: for MIC against P. vulgaris / MIC P. vulgaris: 96-well plate, 37° C., 10 h; for MIC against P. vulgaris / MIC P. vulgaris / MIC (μg/mL) P. vulgaris: 5×10^5 CFU/mL
In short: as §1

Klebsiella pneumonia = assay: MIC against Gram-negative bacteria: Klebsiella pneumonia; conditions: for MIC against K. pneumonia / MIC K. pneumonia: 96-well plate, 37° C., 10 h; for MIC against K. pneumonia / MIC K. pneumonia / MIC (μg/mL) K. pneumonia: 5×10^5 CFU/mL
In short: as §1

Citrobacter diversus = assay: MIC against Gram-negative bacteria: Citrobacter diversus; conditions: for MIC against C. diversus / MIC C. diversus: 96-well plate, 37° C., 10 h; for MIC against C. diversus / MIC C. diversus / MIC (μg/mL) C. diversus: 5×10^5 CFU/mL
In short: as §1

Enterobacter cloacae = assay: MIC against Gram-negative bacteria: Enterobacter cloacae; conditions: for MIC against E. cloacae / MIC E. cloacae: 96-well plate, 37° C., 10 h; for MIC against E. cloacae / MIC E. cloacae / MIC (μg/mL) E. cloacae: 5×10^5 CFU/mL
In short: as §1

Aeromonas hydrophila = assay: MIC against Gram-negative bacteria: Aeromonas hydrophila; conditions: for MIC against A. hydrophila / MIC A. hydrophila: 96-well plate, 37° C., 10 h; for MIC against A. hydrophila / MIC A. hydrophila / MIC (μg/mL) A. hydrophila: 5×10^5 CFU/mL
In short: as §1

E. coli DH5α = assay: Antibacterial activity: MIC and growth curve against E. coli DH5α in 96-well plate; conditions: minimal inhibitory concentration against E. coli DH5α; 96-well plate, 5×10^5 CFU/mL, 37° C., judged after 8 h
In short: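 MIC taken as lowest protein level with no bacterial growth, tracked by A600 every 30 min during 37 °C, 175 rpm culture. Two-fold protein series 50-12.5 μg/mL final, triplicate wells, against 5×10^5 CFU/mL of LB-washed mid-log cells.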

Pseudomonas aeruginosa = assay: MIC against Gram-negative bacteria: Pseudomonas aeruginosa; conditions: for MIC against P. aeruginosa / MIC P. aeruginosa: 96-well plate, 37° C., 10 h; for MIC against P. aeruginosa / MIC P. aeruginosa / MIC (μg/mL) P. aeruginosa: 5×10^5 CFU/mL
In short: as §1

Proteus mirabilis = assay: MIC against Gram-negative bacteria: Proteus mirabilis; conditions: for MIC against P. mirabilis / MIC P. mirabilis: 96-well plate, 37° C., 10 h; for MIC against P. mirabilis / MIC P. mirabilis / MIC (μg/mL) P. mirabilis: 5×10^5 CFU/mL
In short: as §1

Moraxella catarrhalis = assay: MIC against Gram-negative bacteria: Moraxella catarrhalis; conditions: for MIC against M. catarrhalis / MIC M. catarrhalis: 96-well plate, 37° C., 10 h; for MIC against M. catarrhalis / MIC M. catarrhalis / MIC (μg/mL) M. catarrhalis: 5×10^5 CFU/mL
In short: as §1

[1] = E. coli BL21, 10 h cultivation at 37° C.
[2] = S. marcescens, 10 h cultivation at 37° C.
[3] = P. vulgaris, 10 h cultivation at 37° C.
[4] = K. pneumonia, 10 h cultivation at 37° C.
[5] = C. diversus, 10 h cultivation at 37° C.
[6] = E. cloacae, 10 h cultivation at 37° C.
[7] = A. hydrophila, 10 h cultivation at 37° C.
[8] = P. aeruginosa, 10 h cultivation at 37° C.
[9] = P. mirabilis, 10 h cultivation at 37° C.
[10] = M. catarrhalis, 10 h cultivation at 37° C.

PRT1315 (FGPDCQSVCSCVHGVCNHGPRGDGSCLCFAGYTGPHCD; listed as Homo sapiens)
25 µg/mL: MIC against E. cloacae (Enterobacter cloacae; Enterobacter cloacae) | MIC (E. coli DH5α)
12.5 µg/mL: MIC against E. coli BL21 (E. coli BL21; E. coli BL21) | MIC against S. marcescens (Serratia marcescens; Serratia marcescens) | MIC against C. diversus (Citrobacter diversus; Citrobacter diversus) | MIC against A. hydrophila (Aeromonas hydrophila; Aeromonas hydrophila) | MIC against P. aeruginosa (Pseudomonas aeruginosa; Pseudomonas aeruginosa) | MIC against P. mirabilis (Proteus mirabilis; Proteus mirabilis)
100 µg/mL: MIC against K. pneumonia (Klebsiella pneumonia; Klebsiella pneumonia)
50 µg/mL: MIC against P. vulgaris (Proteus vulgaris; Proteus vulgaris) | MIC against M. catarrhalis (Moraxella catarrhalis; Moraxella catarrhalis)

PRT1006 (PLSSCQKAALSQGIDVSSLCHNGGLCVDSGPSYFCHCPPGFQGSLCQ; listed as Homo sapiens)
12.5 µg/mL: MIC (Enterobacter cloacae; [6]) | MIC (E. coli DH5α) | MIC (Pseudomonas aeruginosa; [8]) | MIC (Moraxella catarrhalis; [10])
50 µg/mL: MIC (E. coli BL21; [1]) | MIC (Proteus vulgaris; [3]) | MIC (Klebsiella pneumonia; [4]) | MIC (Aeromonas hydrophila; [7])
25 µg/mL: MIC (Serratia marcescens; [2]) | MIC (Citrobacter diversus; [5]) | MIC (Proteus mirabilis; [9])

PRT644 (DINECQLQGVCPNGECLNTMGSYRCTCKIGFGPDPTFS; listed as Homo sapiens)
12.5 µg/mL: MIC E. coli BL21 (E. coli BL21) | MIC A. hydrophila (Aeromonas hydrophila)
100 µg/mL: MIC P. vulgaris (Proteus vulgaris)
25 µg/mL: MIC S. marcescens (Serratia marcescens) | MIC C. diversus (Citrobacter diversus) | MIC E. cloacae (Enterobacter cloacae) | MIC (E. coli DH5α) | MIC P. aeruginosa (Pseudomonas aeruginosa) | MIC P. mirabilis (Proteus mirabilis)
50 µg/mL: MIC K. pneumonia (Klebsiella pneumonia) | MIC M. catarrhalis (Moraxella catarrhalis)

PRT827 (HLECSCHNNSTCEPATGTCRCGPGFYGQACE; listed as Homo sapiens)
12.5 µg/mL: MIC (μg/mL) P. vulgaris (Proteus vulgaris; [3]) | MIC (μg/mL) K. pneumonia (Klebsiella pneumonia; [4]) | MIC (μg/mL) C. diversus (Citrobacter diversus; [5]) | MIC (E. coli DH5α) | MIC (μg/mL) P. aeruginosa (Pseudomonas aeruginosa; [8])
50 µg/mL: MIC (μg/mL) S. marcescens (Serratia marcescens; [2]) | MIC (μg/mL) E. cloacae (Enterobacter cloacae; [6]) | MIC (μg/mL) P. mirabilis (Proteus mirabilis; [9])
25 µg/mL: MIC (μg/mL) E. coli BL21 (E. coli BL21; [1]) | MIC (μg/mL) A. hydrophila (Aeromonas hydrophila; [7]) | MIC (μg/mL) M. catarrhalis (Moraxella catarrhalis; [10])

PRT872 (CKCNLHANLCSMREGSLQCECEHNTTGPDCGKCKKNFRTRSWRAGSYLPLPHGSPNACAT; listed as Homo sapiens)
25 µg/mL: MIC (μg/mL) S. marcescens (Serratia marcescens; [2]) | MIC (μg/mL) E. cloacae (Enterobacter cloacae; [6]) | MIC (E. coli DH5α) | MIC (μg/mL) P. aeruginosa (Pseudomonas aeruginosa; [8])
50 µg/mL: MIC (μg/mL) E. coli BL21 (E. coli BL21; [1]) | MIC (μg/mL) P. vulgaris (Proteus vulgaris; [3]) | MIC (μg/mL) A. hydrophila (Aeromonas hydrophila; [7]) | MIC (μg/mL) M. catarrhalis (Moraxella catarrhalis; [10])
12.5 µg/mL: MIC (μg/mL) K. pneumonia (Klebsiella pneumonia; [4]) | MIC (μg/mL) C. diversus (Citrobacter diversus; [5]) | MIC (μg/mL) P. mirabilis (Proteus mirabilis; [9])

PRT562 (CQCHNNIDTTDPEACDKETGRCLKCLYHTEGEHCQFCRFGYYGDALQQDCRK; listed as Homo sapiens)
25 µg/mL: MIC against E. coli BL21 (E. coli BL21) | MIC against P. vulgaris (Proteus vulgaris) | MIC against K. pneumonia (Klebsiella pneumonia) | MIC against A. hydrophila (Aeromonas hydrophila) | MIC against M. catarrhalis (Moraxella catarrhalis)
50 µg/mL: MIC against S. marcescens (Serratia marcescens) | MIC against C. diversus (Citrobacter diversus) | MIC against E. cloacae (Enterobacter cloacae) | MIC (E. coli DH5α) | MIC against P. aeruginosa (Pseudomonas aeruginosa)
12.5 µg/mL: MIC against P. mirabilis (Proteus mirabilis)

PRT605 (CLCPDDPSSNQYFAHSCYQNLWSSDVICNCLQGYTGTQCGECSTGFYGNPRISGAPCQP; listed as Homo sapiens)
50 µg/mL: MIC S. marcescens (Serratia marcescens) | MIC C. diversus (Citrobacter diversus) | MIC P. aeruginosa (Pseudomonas aeruginosa)
12.5 µg/mL: MIC E. cloacae (Enterobacter cloacae) | MIC (E. coli DH5α) | MIC P. mirabilis (Proteus mirabilis)
25 µg/mL: MIC E. coli BL21 (E. coli BL21) | MIC P. vulgaris (Proteus vulgaris) | MIC K. pneumonia (Klebsiella pneumonia) | MIC A. hydrophila (Aeromonas hydrophila) | MIC M. catarrhalis (Moraxella catarrhalis)
